Assays:
soybean CYP71A10 = molecular target: T1, soybean CYP71A10 (Glycine max, UniProt O48918); assay: In vitro herbicide metabolism assay and enzyme kinetics, microsomes of yeast expressing CYP71A10; assay type: biochemical; details: for metabolites formed from the radiolabeled herbicide (TLC): 45 minutes at 27° C., 0.75 mM NADPH, 2.5 mg/ml microsomal protein
T1 construct: microsomes of yeast W(R) overexpressing endogenous P450 reductase
T1 sequence (O48918 1-513): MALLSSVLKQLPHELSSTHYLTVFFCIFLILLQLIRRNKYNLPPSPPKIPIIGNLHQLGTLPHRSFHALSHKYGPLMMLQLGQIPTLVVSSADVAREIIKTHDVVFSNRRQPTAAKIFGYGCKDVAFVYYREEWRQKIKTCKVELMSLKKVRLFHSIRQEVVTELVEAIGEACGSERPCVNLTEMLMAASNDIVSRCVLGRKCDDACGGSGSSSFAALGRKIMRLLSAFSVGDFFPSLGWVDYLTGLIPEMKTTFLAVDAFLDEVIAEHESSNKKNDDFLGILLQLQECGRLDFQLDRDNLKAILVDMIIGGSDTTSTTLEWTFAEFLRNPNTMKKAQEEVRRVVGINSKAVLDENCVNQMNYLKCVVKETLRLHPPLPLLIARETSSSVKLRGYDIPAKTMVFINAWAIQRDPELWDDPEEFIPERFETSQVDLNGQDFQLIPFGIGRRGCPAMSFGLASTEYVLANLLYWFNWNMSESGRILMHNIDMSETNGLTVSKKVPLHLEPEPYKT
T1 sequence (P16603 1-691 partner): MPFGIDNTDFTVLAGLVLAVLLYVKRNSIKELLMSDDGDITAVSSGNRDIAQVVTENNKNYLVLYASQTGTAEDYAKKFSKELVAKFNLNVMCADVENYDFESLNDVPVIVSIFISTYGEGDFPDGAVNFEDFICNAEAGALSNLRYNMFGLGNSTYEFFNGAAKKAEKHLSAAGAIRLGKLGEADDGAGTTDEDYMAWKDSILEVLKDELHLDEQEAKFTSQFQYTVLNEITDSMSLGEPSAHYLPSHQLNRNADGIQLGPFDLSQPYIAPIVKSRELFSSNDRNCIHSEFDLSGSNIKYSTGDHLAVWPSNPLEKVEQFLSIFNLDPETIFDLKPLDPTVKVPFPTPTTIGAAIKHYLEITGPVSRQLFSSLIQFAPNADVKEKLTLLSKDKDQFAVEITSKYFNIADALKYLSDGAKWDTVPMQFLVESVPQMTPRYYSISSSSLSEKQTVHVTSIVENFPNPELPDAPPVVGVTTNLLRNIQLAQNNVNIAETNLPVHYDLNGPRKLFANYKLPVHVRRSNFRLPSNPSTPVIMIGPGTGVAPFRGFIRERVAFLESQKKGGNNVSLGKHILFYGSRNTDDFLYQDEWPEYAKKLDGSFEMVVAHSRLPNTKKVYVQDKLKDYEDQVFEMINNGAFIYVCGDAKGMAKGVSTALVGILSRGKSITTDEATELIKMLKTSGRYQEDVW
Experimental: Yeast transformation was performed as described by Geitz et al., Nucleic Acids Research 20:1425 (1992). Media composition, culturing conditions, galactose induction, and microsomal preparations were conducted according to Pompon et al., Methods Enzymol. 272:51-64 (1995), using a culture volume of 250 ml. Microsomal protein was quantified spectrophotometrically using the method of Waddell, J. Lab. Clin. Med. 48:311-314 (1956), using bovine albumin as a standard. Dithionite-reduced, carbon monoxide difference spectra was obtained as previously outlined (Estabrook and Werringloer, Methods Ennzmol. 52:212-220 (1978)) using a Shimadzu Recording Spectrophotometer UV-240 (Shimadzu, Kyoto, Japan). P-450 protein concentrations of yeast microsomes were calculated using a millimolar extinction coefficient of 91 (Omura and Sato, J. Biol. Chem., 239:2370-2378 (1964)).
Yeast microsomes enriched for a discrete soybean P-450 isozyme were assayed for their capacity to metabolize the ten herbicides and one insecticide listed in Table 3. The reaction mixtures contained 10,000 DPM (100-200 ng) radiolabeled substrate, 0.75 mM NAPDH, 2.5 mg/ml microsomal protein. Total reaction volumes were adjusted to 150 μl with 50 mM phosphate buffer (pH 7.1). The mixtures were incubated under light for 45 minutes at 27° C., arrested with 50 μl acetone and centriftiged at 14 000×g for 2 minutes. […] Radiolabeled bentazon and imazaquin-containing samples were spotted onto 200 micron Whatman LKC18F silica gel reversed-phase plates. All plates were developed in a benzene/acetone 2:1 (v/v) solvent system with the exception of prosulfaron, developed in toluene/acetone/acetic acid, 75:20:5 (v/v/v), and bentazon and imazaquin, developed in methanol/75 mM sodium acetate 40:60 (v/v). The developed plates were scanned with a Bioscan System 400 imaging scanner (Bioscan, Washington, D.C.), and the production of metabolites was determined based on the chromatographic profiles. For microsomes containing the expressed CYP71A10 enzyme, control experiments were also conducted to measure the NADPH-dependency, and the inhibitory effects of CO. CO treatment of the sample was achieved by gentle bubbling of the gas through the reaction mixture for 2 minutes immediately before the assay was initiated by the addition of NADPH.
Substrate conversion was quantified by a combination of TLC analysis and scintillation spectrometry. The location of the metabolic products on the TLC plates was identified using an imaging scanner, the bands were scraped and analyzed by scintillation spectrometry. The amount of metabolite produced was calculated based on specific activity and scintillation counts. Each assay was repeated at least twice. Km and Vmax values were estimated using nonlinear regression analysis.

[1] = test system: excised leaves of transgenic tobacco plant 25/2 progeny (CYP71A10-transformed); assay: In vivo herbicide metabolism assay, excised leaves of CYP71A10-transformed tobacco; design: species or system Nicotiana tabacum cv SR1; details: for % of herbicide metabolized, CYP71A10-transformed: after 14 hours, 1.2 nmol herbicide, standard error in parentheses, four 25/2 plants; for share of the chlortoluron metabolites recovered from CYP71A10-transformed leaves: 14 hours, TLC
Experimental: (§1) Seeds from primary transgenic tobacco plants transformed with CYP71A10 and control plants transformed with the pBI121 vector were grown in Petri dishes containing MS salts and 100 μg/ml kanamycin. At five weeks post-seeding, kanamycin-resistant plantlets were transplanted into pots containing soil and grown an additional two weeks. Single leaves of approximately 10 cm^2 in size were excised and their petioles inserted into 100 μl of H2 O containing radiolabeled herbicide. The leaves were placed in a growth chamber maintaining a temperature of 27° C. and incubated until the entire volume of the herbicide solution was drawn up by the transpirational stream of the leaves (about 3 hrs). The leaves were subsequently transferred into an Eppendorf tube containing distilled water and further incubated for a total of 14 hours.
(§2) [^14 C]-labeled herbicide was extracted from the leaves by grinding for 5 minutes in 250 μl methanol with a plastic pellet pestle driven by an electric drill. After centrifugation for 3 minutes at 14,000 g, 75μl of the supernatant was spotted on a Whatman K6F silica plate and developed in a solvent system containing chloroforn/ethanol/acetic acid 135:10:15 (v/v/v). The separated herbicide derivatives were visualized using an imaging scanner. Substrate conversion was quantified based on the amount of herbicide absorbed, and the ratios of the parent compound and the produced metabolites determined from the TLC profiles.

[2] = test system: wild-type SR1 plants and pBI121-transformed control tobacco plants; assay: Herbicide tolerance, seeds germinated on herbicide medium, control tobacco; assay type: in vivo, Nicotiana tabacum cv SR1; details: data not shown
Experimental: (§3) T1 generation seeds from CYP71A10-transformed tobacco and pBI121-transformed control plants were placed onto Petri dishes containing MS salts and linuron (using its commercial formulation LOROX 50 DF) at active ingredient concentrations ranging from 0.25 to 3.0 μM. Chlortoluron was added at 0, 1.0, 5.0 and 10.0 μM concentrations using a 99.5% pure analytical standard. The Petri dishes were incubated in a growth chamber maintaining a constant temperature of 27° C. and a 16/8 hour light/dark cycle. The phytotoxic effects of the treatments were determined visually by comparison to control plants and plants grown in the absence of the herbicide. All treatments were repeated at least twice.

[3] = test system: CYP71A10-transformed tobacco; assay: Herbicide tolerance, seeds germinated on herbicide medium, CYP71A10-transformed tobacco; assay type: in vivo, Nicotiana tabacum cv SR1; details: for tolerance of line 25/2 to the herbicide: compared with control plants, data not shown
Experimental: as §3

Hill-reaction = details: cited from earlier work
[4] = test system: excised leaves of control tobacco plants transformed with pBI121; assay: In vivo herbicide metabolism assay, excised leaves of control tobacco; design: species or system Nicotiana tabacum cv SR1; details: for % of herbicide metabolized, Control: after 14 hours, 1.2 nmol herbicide, standard error in parentheses, three pBI121 control plants; for share of the chlortoluron metabolites produced in control leaves: 14 hours, TLC
Experimental: as §1, §2

[5] = substrate: CN(C)C(=O)Nc1ccc(Cl)c(Cl)c1; assay: cells, lysate or membranes named; details: other: yeast microsomes containing CYP71A10; standard error in parentheses; nonlinear regression; pH 7.1; 27.0 °C
[6] = substrate: CON(C)C(=O)Nc1ccc(Cl)c(Cl)c1; assay: In vitro herbicide metabolism assay and enzyme kinetics, microsomes of yeast expressing CYP71A10; assay type: biochemical, soybean (Glycine max); details: other: yeast microsomes containing CYP71A10; standard error in parentheses; nonlinear regression; pH 7.1; 27.0 °C
[7] = substrate: Cc1ccc(NC(=O)N(C)C)cc1Cl; assay: as above; assay type: biochemical, soybean (Glycine max); details: other: yeast microsomes containing CYP71A10; standard error in parentheses; nonlinear regression; pH 7.1; 27.0 °C
[8] = substrate: CN(C)C(=O)Nc1cccc(C(F)(F)F)c1; assay: as above; assay type: biochemical, soybean (Glycine max); details: other: yeast microsomes containing CYP71A10; standard error in parentheses; nonlinear regression; pH 7.1; 27.0 °C
[9] = yeast microsomes containing CYP71A10, standard error in parentheses

Clc1ccc(N2N=NC3C4CC(C5N=NC45)C32)cc1 (centres unmarked) [tetcyclasis]
effect on linuron metabolizing activity (soybean CYP71A10): completely abolished

CON(C)C(=O)Nc1ccc(Cl)c(Cl)c1 [Linuron, linuron]
metabolites formed from the radiolabeled herbicide (TLC) (soybean CYP71A10): two (a major and a minor) metabolites | linuron metabolizing activity with microsomes of yeast expressing only the V60 control plasmid (soybean CYP71A10; V-60 control microsomes, no CYP71A10): no activity is detected | linuron metabolites when NADPH is omitted from the reaction (soybean CYP71A10; no NADPH): no metabolites are observed | Turnover (soybean CYP71A10; [9]): 2.8 (0.27) min^-1 | % of herbicide metabolized, CYP71A10-transformed [1]: 87 (2.0) % | growth of wild-type SR1 and pBI121 control plants ([2]; 0.25 μM linuron (LOROX 50 DF) in medium): severely inhibited | growth of wild-type SR1 and pBI121 control plants ([2]; linuron 0.5 μM and higher in medium): completely arrested | germinated seedlings of plant 25/2 inhibited by the herbicide ([3]; 0.5 μM linuron in medium): one of 23 | number of 20 other independent CYP71A10-expressing lines giving linuron tolerant progeny ([3]; 0.5 μM linuron in medium): 19 lines | linuron level to which tolerant 25/2 plants were observed ([3]; increasing percentage of plants inhibited with rising concentration): ≤ 2.5 µM | inhibition of the Hill-reaction relative to N-demethyl linuron (Hill-reaction): 10 fold | % of herbicide metabolized, Control [4]: 12 (2.6) %

CN(C)C(=O)Nc1ccc(CO)c(Cl)c1 [ring-methyl hydroxy chlortoluron]
share of the chlortoluron metabolites recovered from CYP71A10-transformed leaves [1]: 47%

CN(C)C(=O)Nc1ccc(Cl)c(Cl)c1 [Diuron, diuron]
metabolites formed from the radiolabeled herbicide (TLC) (soybean CYP71A10): a single metabolite | Turnover (soybean CYP71A10; [9]): 0.4 (0.04) min^-1 | Vmax (soybean CYP71A10; [9]): 16.8 (1.6) pmol min^-1 mg^-1 protein | % of herbicide metabolized, CYP71A10-transformed [1]: 49 (7.0) % | tolerance of line 25/2 to the herbicide [3]: little tolerance | % of herbicide metabolized, Control [4]: 20 (2.0) %

CN(C)C(=O)Nc1cccc(C(F)(F)F)c1 [Fluometuron, fluometuron]
metabolites formed from the radiolabeled herbicide (TLC) (soybean CYP71A10): a single metabolite | Turnover (soybean CYP71A10; [9]): 6.8 (0.24) min^-1 | % of herbicide metabolized, CYP71A10-transformed [1]: 91 (4.5) % | tolerance of line 25/2 to the herbicide [3]: little tolerance | % of herbicide metabolized, Control [4]: 15 (0.6) %

CNC(=O)Nc1ccc(C)c(Cl)c1 [N-demethyl chlortoluron]
share of the chlortoluron metabolites recovered from CYP71A10-transformed leaves [1]: 8% | share of the chlortoluron metabolites produced in control leaves [4]: Sixty three | share of the chlortoluron metabolites produced in control leaves ([4]; listed as Ndemethyl chlortoluron): 63%

[C-]#[O+] [CO, carbon monoxide]
reduction of linuron metabolizing activity (soybean CYP71A10; linuron as substrate (3.2 μM), CO bubbled through reaction mixture for 2 minutes): approximately 37%

B1: soybean CYP71A10 (Glycine max) (protein)
chain: T1 sequence (O48918 1-513)
notes: microsomes of yeast W(R) overexpressing endogenous P450 reductase
Km [5]: 1.5 µM | Km [6]: 9.8 µM | Vmax [6]: 125.6 (12.0) pmol min^-1 mg^-1 protein | Km [7]: 1 µM | Vmax [7]: 29.4 (2.2) pmol min^-1 mg^-1 protein | Km [8]: 14.9 µM

— patent US6121512A, “Cytochrome P-450 constructs and method of producing herbicide-resistant transgenic plants” (North Carolina State University, priority 1997, dated 2000)
